Test: MAD study: predose plasma adrenocorticotropic hormone (ACTH)
Type: in vivo, human
Text: Table 10 presents mean predose plasma ACTH concentrations over time and change and percent change from Day 1 to Day 10 predose concentrations by treatment group for the PD Population.

CCC(=O)N[C@@H]1CCCc2c(-c3ccc4c(c3)CCC(=O)N4C)cncc21 [(R)-Compound 1, (R)—N-(4-(1-methyl-2-oxo-1,2,3,4-tetrahydroquinolin-6-yl)-5,6,7,8-tetrahydroisoquinolin-8-yl)propionamide]
Plasma ACTH, change from Day 1 to Day 10, predose, mean (0.5 mg, normal salt diet): -0.15 pmol/L
Plasma ACTH, percent change from Day 1 to Day 10, predose, mean (0.5 mg, normal salt diet): −2.01%
Plasma ACTH, change from Day 1 to Day 10, predose, mean (1.5 mg, normal salt diet): -1.63 pmol/L
Plasma ACTH, percent change from Day 1 to Day 10, predose, mean (1.5 mg, normal salt diet): −24.00%
Plasma ACTH, change from Day 1 to Day 10, predose, mean (2.5 mg, low salt diet): 2.11 pmol/L
Plasma ACTH, percent change from Day 1 to Day 10, predose, mean (2.5 mg, low salt diet): 184.44%
Plasma ACTH, change from Day 1 to Day 10, predose, mean (2.5 mg, normal salt diet): -4.04 pmol/L
Plasma ACTH, percent change from Day 1 to Day 10, predose, mean (2.5 mg, normal salt diet): −35.69%
Plasma ACTH, change from Day 1 to Day 10, predose, mean (5.0 mg, low salt diet): 1.57 pmol/L
Plasma ACTH, percent change from Day 1 to Day 10, predose, mean (5.0 mg, low salt diet): 125.86%
Predose plasma ACTH, mean (Day 1, predose, 0.5 mg, normal salt diet): 3.91 pmol/L
Predose plasma ACTH, mean (Day 1, predose, 1.5 mg, normal salt diet): 6.30 pmol/L
Predose plasma ACTH, mean (Day 1, predose, 2.5 mg, low salt diet): 1.47 pmol/L
Predose plasma ACTH, mean (Day 1, predose, 2.5 mg, normal salt diet): 6.40 pmol/L
Predose plasma ACTH, mean (Day 1, predose, 5.0 mg, low salt diet): 1.96 pmol/L
Predose plasma ACTH, mean (Day 10, predose, 0.5 mg, normal salt diet): 3.76 pmol/L
Predose plasma ACTH, mean (Day 10, predose, 1.5 mg, normal salt diet): 4.67 pmol/L
Predose plasma ACTH, mean (Day 10, predose, 2.5 mg, low salt diet): 3.59 pmol/L
Predose plasma ACTH, mean (Day 10, predose, 2.5 mg, normal salt diet): 2.80 pmol/L
Predose plasma ACTH, mean (Day 10, predose, 5.0 mg, low salt diet): 3.52 pmol/L
ACTH increase compared to placebo (low salt diet conditions (Cohorts 1 and 2)): somewhat more pronounced
ACTH (normal salt diet conditions): apparent dose-dependent decreases
